The source of these data is patent publication US4994485A, “Thio compounds having fungicidal activity” (Duphar International Research B.V., priority 1986, dated 1991).

The test system of one assay is Leptosphaeria nodorum. The assay can be described thus: In vitro test on activity against Leptosphaeria nodorum. In kind it is cell-based. Particulars: Parastagonospora nodorum, read-out: growth inhibition of the fungus. Here is the method:
(§1) The compound to be tested is processed in a culture medium consisting of 1% by weight of glucose, 0.2% by weight of a yeast extract (marmite), 0.5% by weight of a protein (pepton), 2.5% by weight of agar-agar, and 95.8% by weight of water, in petri dishes in concentrations of 3 and 10 ppm. The petri dishes are inoculated with the plant-pathogenic fungus Pyrenophora graminea and then kept at a temperature of 20° C. After 48 hours the growth-inhibiting activity of the compounds is determined visually. For comparison, the known substance (b) (see EXAMPLE XV) is also tested.
Compounds according to the invention are tested on i Leptosphaeria nodorum in the same manner as described in EXAMPLE XIX.
Regarding `C[S+]([O-])c1sc(C(=O)c2ccc(Cl)cc2)c(Cl)c1C#N` (stereo not drawn) [(42), 2-methylsulphinyl-3-cyano-4-chloro-5-(4-chlorobenzoyl) thiophene], the inhibition at 30 ppm was at least 85%.

Regarding `CC[S+]([O-])c1sc(C(=O)c2ccc(Cl)cc2)cc1C#N` (stereo not drawn) [(47), 2-ethylsulphinyl-3-cyano-5-(4-chlorobenzoyl)thiophene], the inhibition at 30 ppm was at least 85%.

`C[S+]([O-])c1sc(C(=O)c2ccccc2)cc1C#N` (stereo not drawn) [(51), 2-methylsulphinyl-3-cyano-5-benzoylthiophene]: the inhibition at 30 ppm was at least 85%.

Consider `CCSC(=C(C#N)c1ccc(Cl)cc1)[S+]([O-])CC` (stereo not drawn) [(53), α-cyano-β-ethylsulphinyl-β-ethylthio-4-chlorostyrene], for which the inhibition at 30 ppm was at least 85%.

For `CC[S+]([O-])c1sc(C(=O)c2ccc(Cl)cc2)c(Cl)c1C#N` (stereo not drawn) [(72), 2-ethylsulphinyl-3-cyano-4-chloro-5-(4-chlorobenzoyl)thiophene], the inhibition at 30 ppm was at least 85%.

Take `C[S+]([O-])c1sc(C#N)c(Sc2ccccc2)c1C#N` (stereo not drawn) [(85), 2-methylsulphinyl-3,5-dicyano-4-phenylthio-thiophene]: the inhibition at 30 ppm was at least 85%.

Take `CCCC[S+]([O-])c1sc(C(C)=O)c(Br)c1C#N` (stereo not drawn) [(86), 2-n-butylsulphinyl-3-cyano-4-bromo-5-acetylthiophene]: the inhibition at 30 ppm is at least 85%.

A further assay relates to Fusarium culmorum. The assay is described as follows: Protection of seedlings against plant pathogenic seed fungus by seed treatment (wheat). In kind it is in vivo. Particulars: wheat seed infested with Fusarium culmorum; 3 g composition (10% by weight in kaolin) per kg of seed; after three weeks, 8°-12° C.; untreated 67. Here is the method:
Test with respect to the protection of seedlings against a plant pathogenic seed fungus, namely Fusarium culmorum, by means of a seed treatment.
Wheat seed, infested with Fusarium culmorum, is treated with the substance to be tested in the form of a composi tion in a quantity of 3 g per kg of seed. The composition is obtained by pulverising the substance to be tested and then intimately mixing with kaolin in a concentration of 10% by weight. The seed thus treated is sown in a tray containing soil which is placed in a Wisconsin tank with a bottom temperature of 8°-12° C. After three weeks the number of emerged and healthy plants is determined. The emergence of healthy plants from untreated seed serves as control. For comparison, the known substances 2-methylsulphinyl-4-methyl-5-nitrothiazole (a), 2-methylsulphinyl-3-nitrothiophene (b) and 2-ethylsulphinyl-3-nitro-5-acetylthiophene (c) mentioned hereinbefore are also tested. In the examples, the numbers of the compounds refer to the specification.
Regarding `CC(=O)c1cc(C#N)c([S+](C)[O-])s1` (stereo not drawn) [(1), 2-methylsulphinyl-3-cyano-5-acetylthiophene], the “Percentage of emerged, healthy plants” value is 91%.

For another assay, the system named is Pythium spp. The assay can be described thus: Protection of seedlings against plant-pathogenic soil fungus by seed treatment (beet). The format is in vivo. Conditions: 600 mg of active substance per kg of seed, after 3 weeks, 18°-22° C., untreated 72. Here is the method: Test with respect to the protection of seedlings against a plant-pathogenicsoil fungus, namely Pythium spp., by means of a seed treatment.
The compounds to be tested are processed to compositions by pulverising them and then mixing them intimately with kaolin in the desired concentration (see Table B). Beet seed is treated with these compositions in a quantity of 6 g of composition per kg of seed and then sown in trays with soil which was seriously infested with Pythium spp. After 3 weeks in a glass-house at 18°-22° C. and a relative humidity of 70-100%, the percentage of non-emerged and diseased seedlings (damping-off) is determined. The results are recorded in Table B. For comparison, the known substance 2-methylsulphinyl-4-methyl-5-nitrothiazole(a) is also tested.
In turn, `CC(=O)c1cc(C#N)c([S+](C)[O-])s1` (stereo not drawn) [(1), 2-methylsulphinyl-3-cyano-5-acetylthiophene] returned a percentage damping-off of 8%.

Staying with this assay, now noted: 1200 mg of active substance per kg of seed, after 3 weeks, 18°-22° C., untreated 72.
`CC(=O)c1cc(C#N)c([S+](C)[O-])s1` (stereo not drawn) [(1), 2-methylsulphinyl-3-cyano-5-acetylthiophene] yielded a percentage damping-off of 7%.

A further assay concerns Fusarium culmorum. The assay is described as follows: In vitro test on activity against Fusarium culmorum. The format is cell-based. Conditions: read-out: growth inhibition of the fungus.
For `CCCC[S+]([O-])c1sc(C(C)=O)c(Cl)c1C#N` (stereo not drawn) [(39), 2-n-butylsulphinyl 3-cyano-4-chloro-5-acetylthiophene], the inhibition at 30 ppm was at least 75%.

In the case of `C[S+]([O-])c1sc(C(=O)c2ccc(Cl)cc2)c(Cl)c1C#N` (stereo not drawn) [(42), 2-methylsulphinyl-3-cyano-4-chloro-5-(4-chlorobenzoyl) thiophene], the inhibition at 30 ppm was at least 75%.

With `CC[S+]([O-])c1sc(C(=O)c2ccc(Cl)cc2)cc1C#N` (stereo not drawn) [(47), 2-ethylsulphinyl-3-cyano-5-(4-chlorobenzoyl)thiophene], the inhibition at 30 ppm is at least 75%.

In the case of `C[S+]([O-])c1sc(C(=O)c2ccccc2)cc1C#N` (stereo not drawn) [(51), 2-methylsulphinyl-3-cyano-5-benzoylthiophene], the inhibition at 30 ppm is at least 75%.

For `C[S+]([O-])c1sc(C(=O)c2ccc(Cl)cc2)cc1C#N` (stereo not drawn) [(52), 2-methylsulphinyl-3-cyano-5-(4-chlorobenzoyl)thiophene], the inhibition at 30 ppm was at least 75%.

As for `CCSC(=C(C#N)c1ccc(Cl)cc1)[S+]([O-])CC` (stereo not drawn) [(53), α-cyano-β-ethylsulphinyl-β-ethylthio-4-chlorostyrene], the inhibition at 30 ppm is at least 75%.

With `CC[S+]([O-])c1sc(C(=O)c2ccc(Cl)cc2)c(Cl)c1C#N` (stereo not drawn) [(72), 2-ethylsulphinyl-3-cyano-4-chloro-5-(4-chlorobenzoyl)thiophene], the inhibition at 30 ppm is at least 75%.

`CCCC[S+]([O-])c1sc(C#N)cc1C#N` (stereo not drawn) [(80)]: the inhibition at 30 ppm was at least 75%.

Consider `C[S+]([O-])c1sc(C#N)c(Sc2ccccc2)c1C#N` (stereo not drawn) [(85), 2-methylsulphinyl-3,5-dicyano-4-phenylthio-thiophene], for which the inhibition at 30 ppm is at least 75%.

Take `CCCC[S+]([O-])c1sc(C(C)=O)c(Br)c1C#N` (stereo not drawn) [(86), 2-n-butylsulphinyl-3-cyano-4-bromo-5-acetylthiophene]: the inhibition at 30 ppm is at least 75%.

The subject of another assay is Pythium splendens. The assay can be described thus: In vitro test on activity against Pythium splendens. In kind it is cell-based. Conditions: Globisporangium splendens, read-out: growth inhibition of the fungus.
Consider `CC(=O)c1cc(C#N)c([S+](C)[O-])s1` (stereo not drawn) [(1), 2-methylsulphinyl-3-cyano-5-acetylthiophene], for which the inhibition at 10 ppm is at least 95%.

As to `CCCC[S+]([O-])c1sc(C(C)=O)c(Cl)c1C#N` (stereo not drawn) [(39), 2-n-butylsulphinyl 3-cyano-4-chloro-5-acetylthiophene], the inhibition at 10 ppm is at least 95%.

On to `C[S+]([O-])c1sc(C(=O)c2ccc(Cl)cc2)c(Cl)c1C#N` (stereo not drawn) [(42), 2-methylsulphinyl-3-cyano-4-chloro-5-(4-chlorobenzoyl) thiophene], for which the inhibition at 10 ppm was at least 95%.

Turning to `CC[S+]([O-])c1sc(C(=O)c2ccc(Cl)cc2)cc1C#N` (stereo not drawn) [(47), 2-ethylsulphinyl-3-cyano-5-(4-chlorobenzoyl)thiophene], the inhibition at 10 ppm was at least 95%.

`C[S+]([O-])c1sc(C(=O)c2ccc(Cl)cc2)cc1C#N` (stereo not drawn) [(52), 2-methylsulphinyl-3-cyano-5-(4-chlorobenzoyl)thiophene]: the inhibition at 10 ppm is at least 95%.

For `CC[S+]([O-])c1sc(C(=O)c2ccc(Cl)cc2)c(Cl)c1C#N` (stereo not drawn) [(72), 2-ethylsulphinyl-3-cyano-4-chloro-5-(4-chlorobenzoyl)thiophene], the inhibition at 10 ppm was at least 95%.

With `CCCC[S+]([O-])c1sc(C#N)cc1C#N` (stereo not drawn) [(80)], the inhibition at 10 ppm is at least 95%.

Consider `C[S+]([O-])c1sc(C#N)c(Sc2ccccc2)c1C#N` (stereo not drawn) [(85), 2-methylsulphinyl-3,5-dicyano-4-phenylthio-thiophene], for which the inhibition at 10 ppm is at least 95%.

On to `CCCC[S+]([O-])c1sc(C(C)=O)c(Br)c1C#N` (stereo not drawn) [(86), 2-n-butylsulphinyl-3-cyano-4-bromo-5-acetylthiophene], for which the inhibition at 10 ppm was at least 95%.

The test system of a further assay is Pyrenophora graminea. The assay can be described thus: In vitro test on activity against Pyrenophora graminea. Particulars: 10 ppm, 48 hours, 20° C., read-out: % growth inhibition of the fungus. The format is cell-based. Here is the method: In vitro test on activity against Pyrenophora graminea.
as §1
For the compound `CCCC[S+]([O-])c1sc(C(C)=O)c(Cl)c1C#N` (stereo not drawn) [(39), 2-n-butylsulphinyl 3-cyano-4-chloro-5-acetylthiophene], the inhibition at 10 ppm came to 81%.

For the compound `CC[S+]([O-])c1sc(C(=O)c2ccc(Cl)cc2)cc1C#N` (stereo not drawn) [(47), 2-ethylsulphinyl-3-cyano-5-(4-chlorobenzoyl)thiophene], the inhibition at 10 ppm was found to be 74%.

As to `C[S+]([O-])c1sc(C(=O)c2ccccc2)cc1C#N` (stereo not drawn) [(51), 2-methylsulphinyl-3-cyano-5-benzoylthiophene], the inhibition at 10 ppm is 71%.

For `C[S+]([O-])c1sc(C(=O)c2ccc(Cl)cc2)cc1C#N` (stereo not drawn) [(52), 2-methylsulphinyl-3-cyano-5-(4-chlorobenzoyl)thiophene], the inhibition at 10 ppm amounted to 71%.

Take `CCSC(=C(C#N)c1ccc(Cl)cc1)[S+]([O-])CC` (stereo not drawn) [(53), α-cyano-β-ethylsulphinyl-β-ethylthio-4-chlorostyrene]: the inhibition at 10 ppm is 83%.

As to `CC[S+]([O-])c1sc(C(=O)c2ccc(Cl)cc2)c(Cl)c1C#N` (stereo not drawn) [(72), 2-ethylsulphinyl-3-cyano-4-chloro-5-(4-chlorobenzoyl)thiophene], the inhibition at 10 ppm turned out to be 70%.

As for `C[S+]([O-])c1sc(C#N)c(Sc2ccccc2)c1C#N` (stereo not drawn) [(85), 2-methylsulphinyl-3,5-dicyano-4-phenylthio-thiophene], the inhibition at 10 ppm turned out to be 73%.

For the compound `CCCC[S+]([O-])c1sc(C(C)=O)c(Br)c1C#N` (stereo not drawn) [(86), 2-n-butylsulphinyl-3-cyano-4-bromo-5-acetylthiophene], the inhibition at 10 ppm was 76%.

The next assay deals with Rhizoctonia solani. The assay can be described thus: In vitro test on activity against Rhizoctonia solani. The format is cell-based. Conditions: read-out: growth inhibition of the fungus. Here is the method: The compound to be tested is processed in a culture medium consisting of 1% by weight of glucose, 0.2% by weight of a yeast extract (marmite), 0.5% by weight of a protein (pepton), 2.5% by weight of agar-agar, and 95.8% by weight of water, […] The petri dishes are inoculated with the plant-pathogenic fungus Pyrenophora graminea and then kept at a temperature of 20° C. After 48 hours the growth-inhibiting activity of the compounds is determined visually. For comparison, the known substance (b) (see EXAMPLE XV) is also tested.
Compounds according to the invention are tested on Rhizoctonia solani in the same manner as described in EXAMPLE XIX.
In the case of `CCCC[S+]([O-])c1sc(C(C)=O)c(Cl)c1C#N` (stereo not drawn) [(39), 2-n-butylsulphinyl 3-cyano-4-chloro-5-acetylthiophene], the inhibition at 30 ppm is at least 75%.

For the compound `C[S+]([O-])c1sc(C(=O)c2ccc(Cl)cc2)c(Cl)c1C#N` (stereo not drawn) [(42), 2-methylsulphinyl-3-cyano-4-chloro-5-(4-chlorobenzoyl) thiophene], the inhibition at 30 ppm was at least 75%.

As to `C[S+]([O-])c1sc(C(=O)c2ccc(Cl)cc2)cc1C#N` (stereo not drawn) [(52), 2-methylsulphinyl-3-cyano-5-(4-chlorobenzoyl)thiophene], the inhibition at 30 ppm was at least 75%.

On to `CCCC[S+]([O-])c1sc(C#N)cc1C#N` (stereo not drawn) [(80)], for which the inhibition at 30 ppm is at least 75%.

Regarding `C[S+]([O-])c1sc(C#N)c(Sc2ccccc2)c1C#N` (stereo not drawn) [(85), 2-methylsulphinyl-3,5-dicyano-4-phenylthio-thiophene], the inhibition at 30 ppm was at least 75%.
